Laboratory results from paper PMC11131246, “Molecular determinants for brain targeting by peptides: a meta-analysis approach with experimental validation” (Fluids and Barriers of the CNS, 2024).
Values belong to the compound of their own block, whether it stands above or below them. Residues, ends and D or L forms follow the SMILES beside them. *: point of attachment. NODAGA = O=C(O)CN1CCN(CC(=O)O)CCN(C(CCC(=O)*)C(=O)O)CC1; CF = 5(6)-carboxyfluorescein

Columns and labels:
[1] = Biodistribution of 67Ga-radiolabeled peptides; parameters: species or system mouse; details: female, CD1, mouse, in vivo, iv, 100 uCi, total radioactivity, Tissue distribution
Protocol: All animal experiments were performed in compliance with national and EU legislation for good practices on laboratory animal science. The animals were housed in a temperature and humidity-controlled environment with a 12 h light/12 h dark schedule. Biodistribution of radiolabeled peptides was performed on 7 weeks old CD1 female mice.
Animals were intravenously injected into the tail vein with 100 µL of a 25 µM saline solution of the ^67Ga-peptide with a radioactivity around 100 µCi. The mice were euthanized by cervical dislocation at 2 min and 1 h after injection. The dose administered and the radioactivity in the euthanized animals was measured using a dose calibrator (Carpintec CRC-15W, Ramsey, USA). The difference between the radioactivity in the injected and the euthanized animals was assumed to be due to excretion. Brain and tissues of interest without previous perfusion were dissected, washed, and weighed, and their radioactivity was measured using a γ counter (Hidex AMG, Hidex, Turku, Finland). The uptake in the brain and tissues of interest was calculated and expressed as a percentage of injected radioactivity dose per gram of tissue (% ID/g).

[2] = Analytical RP-HPLC retention time (used as indication of hydrophobicity); format: physicochemical; details: analytical reverse phase HPLC, UV chromatogram; free and CF-labelled peptides

tissue uptake at 2 min ([1]; Blood): 12.6 ± 2.1 %ID/g
tissue uptake at 1 h ([1]; Blood): 0.5 ± 0.3 %ID/g
tissue uptake at 2 min ([1]; Bone): 3.4 ± 0.3 %ID/g
tissue uptake at 1 h ([1]; Bone): 0.3 ± 0.1 %ID/g
tissue uptake at 2 min ([1]; Brain (brain uptake)): 0.66 ± 0.16 %ID/g
tissue uptake at 1 h ([1]; Brain (brain uptake)): 0.04 ± 0.02 %ID/g
tissue uptake at 2 min ([1]; Heart): 3.4 ± 1 %ID/g
tissue uptake at 1 h ([1]; Heart): 0.3 ± 0.1 %ID/g
tissue uptake at 2 min ([1]; Intestine): 1.7 ± 0.3 %ID/g
tissue uptake at 1 h ([1]; Intestine): 0.2 ± 0.1 %ID/g
tissue uptake at 2 min ([1]; Kidney): 33.8 ± 3.8 %ID/g
tissue uptake at 1 h ([1]; Kidney): 2.4 ± 1.8 %ID/g
tissue uptake at 2 min ([1]; Liver): 4.1 ± 0.8 %ID/g
tissue uptake at 1 h ([1]; Liver): 0.3 ± 0.2 %ID/g
tissue uptake at 2 min ([1]; Lung): 6.1 ± 0.7 %ID/g
tissue uptake at 1 h ([1]; Lung): 2.5 ± 0.3 %ID/g
tissue uptake at 2 min ([1]; Muscle): 2.4 ± 0.2 %ID/g
tissue uptake at 1 h ([1]; Muscle): 0.3 ± 0.1 %ID/g
tissue uptake at 2 min ([1]; Spleen): 2 ± 0.2 %ID/g
tissue uptake at 1 h ([1]; Spleen): 0.2 ± 0.1 %ID/g
tissue uptake at 2 min ([1]; Stomach): 1.4 ± 0.5 %ID/g
tissue uptake at 1 h ([1]; Stomach): 0.1 %ID/g
Compound: CC[C@H](C)[C@H](NC(=O)[C@H](C)NC(=O)CNC(=O)[C@H](CCCCN)NC(=O)[C@H](Cc1ccc(O)cc1)NC(=O)[C@H](CCCCN)NC(=O)CCC(C(=O)O)N1CCN(CC(=O)O)CCN(CC(=O)O)CC1)C(=O)N[C@H](C(=O)NCC(=O)N[C@@H](CC(N)=O)C(=O)N[C@H](C(=O)N[C@@H](CCCCN)C(N)=O)[C@@H](C)CC)[C@@H](C)CC (some centres unmarked) [67Ga-BBBpS_1, metal not drawn] ({NODAGA}-KYKGAIIGNIK-NH2)

tissue uptake at 2 min ([1]; Blood): 13.4 ± 3.8 %ID/g
tissue uptake at 1 h ([1]; Blood): 1.4 ± 0.9 %ID/g
tissue uptake at 2 min ([1]; Bone): 3.1 ± 0.1 %ID/g
tissue uptake at 1 h ([1]; Bone): 0.8 ± 0.5 %ID/g
tissue uptake at 2 min ([1]; Brain (brain uptake)): 0.52 ± 0.23 %ID/g
tissue uptake at 1 h ([1]; Brain (brain uptake)): 0.09 ± 0.03 %ID/g
tissue uptake at 2 min ([1]; Heart): 3.1 ± 0.7 %ID/g
tissue uptake at 1 h ([1]; Heart): 0.8 ± 0.1 %ID/g
tissue uptake at 2 min ([1]; Intestine): 1.5 ± 0.2 %ID/g
tissue uptake at 1 h ([1]; Intestine): 0.4 %ID/g
tissue uptake at 2 min ([1]; Kidney): 18.1 ± 2.1 %ID/g
tissue uptake at 1 h ([1]; Kidney): 1.4 ± 0.6 %ID/g
tissue uptake at 2 min ([1]; Liver): 3.5 ± 1.2 %ID/g
tissue uptake at 1 h ([1]; Liver): 0.6 ± 0.2 %ID/g
tissue uptake at 2 min ([1]; Lung): 6 ± 1.2 %ID/g
tissue uptake at 1 h ([1]; Lung): 1.7 ± 0.4 %ID/g
tissue uptake at 2 min ([1]; Muscle): 2 ± 0.4 %ID/g
tissue uptake at 1 h ([1]; Muscle): 0.7 ± 0.1 %ID/g
tissue uptake at 2 min ([1]; Spleen): 1.9 ± 0.6 %ID/g
tissue uptake at 1 h ([1]; Spleen): 0.5 ± 0.2 %ID/g
tissue uptake at 2 min ([1]; Stomach): 1 ± 0.1 %ID/g
tissue uptake at 1 h ([1]; Stomach): 0.2 ± 0.1 %ID/g
Compound: CC[C@H](C)[C@H](NC(=O)[C@H](C)NC(=O)CNC(=O)[C@H](CO)NC(=O)[C@H](CCCNC(=N)N)NC(=O)[C@H](Cc1ccc(O)cc1)NC(=O)[C@H](CCCCN)NC(=O)CCC(C(=O)O)N1CCN(CC(=O)O)CCN(CC(=O)O)CC1)C(=O)N[C@H](C(=O)N[C@H](C(=O)NCC(=O)N[C@@H](Cc1ccc(O)cc1)C(N)=O)[C@@H](C)CC)[C@@H](C)O (some centres unmarked) [67Ga-BBBpS_2, metal not drawn] ({NODAGA}-KYRSGAITIGY-NH2)

tissue uptake at 2 min ([1]; Blood): 10.7 ± 2.1 %ID/g
tissue uptake at 1 h ([1]; Blood): 1.2 ± 0.3 %ID/g
tissue uptake at 2 min ([1]; Bone): 3.8 ± 0.5 %ID/g
tissue uptake at 1 h ([1]; Bone): 0.6 ± 0.4 %ID/g
tissue uptake at 2 min ([1]; Brain (brain uptake)): 0.74 ± 0.01 %ID/g
tissue uptake at 1 h ([1]; Brain (brain uptake)): 0.05 ± 0.01 %ID/g
tissue uptake at 2 min ([1]; Heart): 3.8 ± 0.8 %ID/g
tissue uptake at 1 h ([1]; Heart): 0.5 %ID/g
tissue uptake at 2 min ([1]; Intestine): 2.2 ± 0.2 %ID/g
tissue uptake at 1 h ([1]; Intestine): 0.4 ± 0.2 %ID/g
tissue uptake at 2 min ([1]; Kidney): 22 ± 3.6 %ID/g
tissue uptake at 1 h ([1]; Kidney): 1.1 ± 0.6 %ID/g
tissue uptake at 2 min ([1]; Liver): 5.2 ± 1.1 %ID/g
tissue uptake at 1 h ([1]; Liver): 1 ± 0.4 %ID/g
tissue uptake at 2 min ([1]; Lung): 7.8 ± 2.8 %ID/g
tissue uptake at 1 h ([1]; Lung): 1.2 ± 0.2 %ID/g
tissue uptake at 2 min ([1]; Muscle): 3.1 ± 0.8 %ID/g
tissue uptake at 1 h ([1]; Muscle): 0.5 ± 0.2 %ID/g
tissue uptake at 2 min ([1]; Spleen): 2.2 ± 0.1 %ID/g
tissue uptake at 1 h ([1]; Spleen): 0.3 ± 0.1 %ID/g
tissue uptake at 2 min ([1]; Stomach): 2.6 %ID/g
tissue uptake at 1 h ([1]; Stomach): 0.3 ± 0.4 %ID/g
Compound: CC[C@H](C)[C@H](NC(=O)[C@H](Cc1c[nH]cn1)NC(=O)CCC(C(=O)O)N1CCN(CC(=O)O)CCN(CC(=O)O)CC1)C(=O)N[C@@H](CCC(N)=O)C(=O)N[C@@H](CC(C)C)C(=O)N[C@@H](CO)C(=O)N1CCC[C@H]1C(=O)N[C@@H](Cc1ccccc1)C(=O)N[C@@H](CO)C(=O)N[C@@H](CCC(N)=O)C(=O)N[C@@H](CO)C(=O)N[C@@H](Cc1c[nH]c2ccccc12)C(=O)N[C@@H](CCCNC(=N)N)C(N)=O (some centres unmarked) [67Ga-BBBpS_5, metal not drawn] ({NODAGA}-HIQLSPFSQSWR-NH2)

tissue uptake at 2 min ([1]; Blood): 11.6 ± 1.5 %ID/g
tissue uptake at 1 h ([1]; Blood): 0.8 ± 0.4 %ID/g
tissue uptake at 2 min ([1]; Bone): 3.4 ± 0.3 %ID/g
tissue uptake at 1 h ([1]; Bone): 0.5 ± 0.1 %ID/g
tissue uptake at 2 min ([1]; Brain (brain uptake)): 0.61 ± 0.11 %ID/g
tissue uptake at 1 h ([1]; Brain (brain uptake)): 0.05 ± 0.01 %ID/g
tissue uptake at 2 min ([1]; Heart): 3.3 ± 0.1 %ID/g
tissue uptake at 1 h ([1]; Heart): 0.3 %ID/g
tissue uptake at 2 min ([1]; Intestine): 1.9 ± 0.2 %ID/g
tissue uptake at 1 h ([1]; Intestine): 0.2 %ID/g
tissue uptake at 2 min ([1]; Kidney): 30 ± 3.7 %ID/g
tissue uptake at 1 h ([1]; Kidney): 3.1 ± 0.3 %ID/g
tissue uptake at 2 min ([1]; Liver): 4.7 ± 0.4 %ID/g
tissue uptake at 1 h ([1]; Liver): 2.6 ± 0.3 %ID/g
tissue uptake at 2 min ([1]; Lung): 5.4 ± 0.6 %ID/g
tissue uptake at 1 h ([1]; Lung): 0.7 ± 0.1 %ID/g
tissue uptake at 2 min ([1]; Muscle): 2.6 ± 0.3 %ID/g
tissue uptake at 1 h ([1]; Muscle): 0.2 ± 0.1 %ID/g
tissue uptake at 2 min ([1]; Spleen): 2.6 ± 0.3 %ID/g
tissue uptake at 1 h ([1]; Spleen): 0.9 ± 0.2 %ID/g
tissue uptake at 2 min ([1]; Stomach): 1.5 ± 0.2 %ID/g
tissue uptake at 1 h ([1]; Stomach): 0.3 ± 0.1 %ID/g
Compound: CC(C)C[C@H](NC(=O)[C@H](Cc1c[nH]c2ccccc12)NC(=O)[C@H](Cc1ccccc1)NC(=O)[C@H](CCC(N)=O)NC(=O)[C@H](C)NC(=O)[C@H](CO)NC(=O)[C@H](CC(=O)O)NC(=O)[C@@H]1CCCN1C(=O)[C@H](CCCNC(=N)N)NC(=O)[C@H](CC(N)=O)NC(=O)CCC(C(=O)O)N1CCN(CC(=O)O)CCN(CC(=O)O)CC1)C(=O)N[C@@H](Cc1c[nH]cn1)C(=O)N[C@@H](Cc1c[nH]cn1)C(N)=O (some centres unmarked) [67Ga-BBBpS_9, metal not drawn] ({NODAGA}-NRPDSAQFWLHH-NH2)

Compound: CF-APWHLSSQYSRT-amide ({CF}-APWHLSSQYSRT-NH2) [CF-CTP, 5(6)-carboxyfluorescein-labelled CTP]
HPLC tR [2]: 8.45 min

HPLC tR [2]: 7.95 min
Compound: CF-EEGRLYMRYYSPTTRRYG-amide [CF-CPP(II), 5(6)-carboxyfluorescein-labelled CPP(II)]

HPLC tR [2]: 9.50 min
Compound: CF-HIQLSPFSQSWR-amide [CF-HAP-2, 5(6)-carboxyfluorescein-labelled HAP-2]

Compound: CF-KKKKQPPKPKKPKTQEKKKKQPPKPKR-amide [CF-P1746c27, 5(6)-carboxyfluorescein-labelled P1746c27]
HPLC tR [2]: 4.23 min

Compound: CF-KWCFRVCYRGICYRRCR-amide [CF-TI, 5(6)-carboxyfluorescein-labelled TI]
HPLC tR [2]: 8.11 min

HPLC tR [2]: 7.05 min
Compound: CF-KYKGAIIGNIK-amide [CF-A, 5(6)-carboxyfluorescein-labelled A]

HPLC tR [2]: 7.62 min
Compound: CF-KYRSGAITIGY-amide [CF-B, 5(6)-carboxyfluorescein-labelled B]

HPLC tR [2]: 13.51 min
Compound: CF-LKTLTETLKELTKTLTEL-amide [CF-KLA13, 5(6)-carboxyfluorescein-labelled KLA13]

HPLC tR [2]: 8.01 min
Compound: CF-NRPDSAQFWLHH-amide [CF-Peptide third, 5(6)-carboxyfluorescein-labelled Peptide third]

Compound: CF-RPKPQQFFGLM-amide [CF-SPA, 5(6)-carboxyfluorescein-labelled SPA]
HPLC tR [2]: 9.25 min

HPLC tR [2]: 7.89 min
Compound: CF-YDEEGGGE-amide [CF-YDEGE, 5(6)-carboxyfluorescein-labelled YDEGE]

HPLC tR [2]: 8.63 min
Compound: CF-YKEATSTFTNITYRGT-amide [CF-Peptide b3-1, 5(6)-carboxyfluorescein-labelled Peptide b3-1]

HPLC tR [2]: 8.79 min
Compound: CF-YTQDFNKFHTFPQTAIGVGAP-amide [CF-hCR(12–32), 5(6)-carboxyfluorescein-labelled hCR(12–32)]
